According to patent US12702673B2, “Sulfated C19 steroid hormones to treat and/or prevent proteotoxicity in protein-aggregation diseases” (U[…] DE OLAVIDE, priority 2020, dated 2026):
“Also recorded” adds a separate entry of the source. Counter-ions that a name gives are not always drawn.

Legend:
[1] = system: GMC101 strain expressing human β-amyloid in muscle; experiment: Alzheimer's disease model: paralysis of GMC101 strain; format: in vivo, Caenorhabditis elegans; details: for paralysis with age: 20° C., monitored during adulthood
Excerpt: Data display from six independent biological replicates, n≥215.
FIG. 4b illustrates that paralysis of GMC101 Alzheimer's disease model is ameliorate with TS and ES.
Assays performed with normal NGM plates. Data display from three independent biological replicates, n>130.
FIG. 15 illustrates that treatment with Androsterone Sulfate (AS) ameliorates the symptoms of Alzheimer's model in Caenorhabditis elegans. The strain GMC101 expresses the human b-amyloid in muscle cells and generate paralysis with age. […] Data from 5 biological replicates. Paralysis was monitored during adulthood. […] More than 200 nematodes were analyzed. Nematodes were synchronized and assayed at 20° C.

[2] = system: NL5901 strain expressing α-synuclein in muscle cells; format: in vivo, Caenorhabditis elegans; details: 1 μg/ml
[3] = system: mammalian model with intrahippocampal administration of βA oligomers; details: local administration; cited from earlier work
[4] = system: daf-2(e1370); experiment: Development / larval arrest at 25° C. (daf-2 interaction); format: in vivo, Caenorhabditis elegans; details: for L1 arrest: daf-2(e1370) background
Description: FIG. 5i illustrates example of sul-2(pv17) larvae, Dauer larval arrest of daf-2(e1370) or L1 arrest of daf-2(e1370); sul-2(pv17) and daf-2(e1370); sul-2(gk187) at 25° C. Animals were grown up to L4 at 16° C., then shifted at 25° C., progeny were scored or imaged after 72 hours. Photographs were taken in a Leica scope.
Photographs were taken in a Leica scope. Arrow heads: Dauers, arrows: L1s.

[5] = system: C. elegans; experiment: Longevity (lifespan) assay in C. elegans; format: in vivo, Caenorhabditis elegans
Excerpt: Worms were cultivated in UV-killed E. coli.
FIGS. 13c and 13d illustrate that additional biological replicates of longevity curve with sulfated C19 steroid hormones.

[6] = system: wild type mice injected with β-amyloid oligomers in the hippocampus; experiment: Passive avoidance test, acute AD model (intrahippocampal β-amyloid oligomers); format: in vivo
Excerpt: FIGS. 3i and 3j illustrate that the effect of intrahippocampal and oral administration of STX64 in the passive avoidance test in wild type mice injected with β-amyloid oligomers in the hippocampus. The number of mice in each group were >5.
FIG. 3p illustrates effect of oral administration with STX64 in more than 15-month-old APP-PS1 mice, and comparation with APP-PS1 and wild type mice older than 15 months in the passive avoidance test. The number of mice in each group were >5. In histological analysis, * represent significant differences between vehicle- and STX64 administrated APP-PS1 mice. […]
As STX64 ameliorated neurodegeneration in C. elegans models, we tested the effect of this drug on cognitive alterations provoked by intrahippocampal βA oligomers infusion, an acute AD mammalian model (FIG. 3i). […] To evaluate the effect of STX64 oral treatment on amyloid pathology in a chronic AD mice model, we assessed the effect of 3-4 weeks of STX64 oral treatment on amyloid deposition in the […] (the cerebral cortex and the hippocampus) of >15-month-old APP-PS1 mice (FIG. 4k). […]

[7] = system: APP-PS1 mice; experiment: β-amyloid deposition in chronic AD model; format: in vivo
Description: FIG. 3k illustrates that representative β-amyloid-immunoreactive images assessed in the frontal cortex and the hippocampus of APP-PS1 mice older than 15 months of age after 3-4 weeks of vehicle or STX64 intake (0.005 mg/ml in drink water).
FIGS. 3l-3n illustrate quantification of percentage of β-amyloid area (c), deposition density (d) and average plaque size (e) in the frontal cortex and the hippocampus of >15 months-old APP-PS1 mice after 3-4 weeks of oral administration with STX64 or vehicle. n=4 mice per groups.
FIG. 3o illustrates temporal course of β-amyloid deposition in APP-PS1 mice and the effect of 3-4 weeks STX64 oral treatment on β-amyloid area in the frontal cortex (upper panel) and the hippocampus (lower panel). The number of microphotographs used was more than 3 in all the mice used.
As STX64 ameliorated neurodegeneration in C. elegans models, we tested the effect of this drug on cognitive alterations provoked by intrahippocampal βA oligomers infusion, an acute AD mammalian model (FIG. 3i). […] To evaluate the effect of STX64 oral treatment on amyloid pathology in a chronic AD mice model, we assessed the effect of 3-4 weeks of STX64 oral treatment on amyloid deposition in the […] (the cerebral cortex and the hippocampus) of >15-month-old APP-PS1 mice ([…]). […] We wondered if this histological improvement correlated with amelioration of cognitive behavioral deficit. For that, we compared cognition capacities in APP-PS1 mice older than 15-month-old treated with vehicle or STX64 for 3-4 weeks.

[8] = system: Q40 aggregates (AM141 strain); experiment: Huntington model: polyglutamine (Q40) aggregates; format: in vivo, Caenorhabditis elegans; details: Q40 background; 1 μg/ml; 5-day old worms
Excerpt: Strains AM140 and AM141 respectively.
In this model, GFP-labelled dopaminergic neurons die due to α-synuclein toxicity. […] We also tested two different strains of Alzheimer's disease (AD) in worms, where immobility is caused by expression of βA protein in muscle cells.

[9] = system: CL2006 strain expressing human β-amyloid in muscle; experiment: Alzheimer's disease model: paralysis with age of CL2006 strain; format: in vivo, Caenorhabditis elegans
Excerpt: FIG. 12g illustrates that expression of human β-amyloid in muscle provokes paralysis with age (CL2006 strain) that is ameliorated by STX64 treatment. Log-rank (Mantel-Cox) test, for sul-2 deletion p=0.0027 and STX treatment p=0.007.

[10] = system: APP-PS1 mice; experiment: Passive avoidance test in chronic AD model; format: in vivo; details: APP-PS1 mice older than 15 months; 3-4 weeks oral
Excerpt: FIG. 3p illustrates effect of oral administration with STX64 in more than 15-month-old APP-PS1 mice, and comparation with APP-PS1 and wild type mice older than 15 months in the passive avoidance test. The number of mice in each group were >5. In histological analysis, * represent significant differences between vehicle- and STX64 administrated APP-PS1 mice. In behavioral test, * represent significant differences between the short-term and long-term memory sessions (STM and LTM, respectively) and the training session in the same experimental group; and, + represent significant differences between the STM and LTM sessions between each experimental group and β-amyloid group. A symbol, p<0.05, two symbols, p<0.01, and three symbols, p<0.001.
As STX64 ameliorated neurodegeneration in C. elegans models, we tested the effect of this drug on cognitive alterations provoked by intrahippocampal βA oligomers infusion, an acute AD mammalian model (FIG. 3i). […] To evaluate the effect of STX64 oral treatment on amyloid pathology in a chronic AD mice model, we assessed the effect of 3-4 weeks of STX64 oral treatment on amyloid deposition in the […] (the cerebral cortex and the hippocampus) of >15-month-old APP-PS1 mice (FIG. 4k). […] We wondered if this histological improvement correlated with amelioration of cognitive behavioral deficit. […]

[11] = thermodependent paralysis, 1 μg/ml
[12] = wild type background, hormone 1 μg/ml

C[C@]12CC[C@@H](OS(=O)(=O)O)C[C@@H]1CC[C@@H]1[C@@H]2CC[C@]2(C)C(=O)CC[C@@H]12 [AS, [(3R,5S,8R,9S,10S,13S,14S)-10,13-Dimethyl-17-oxo-1,2,3,4,5,6,7,8,9,11,12,14,15,16-tetradecahydrocyclopenta[a]phenanthren-3-yl] sulfate]
paralysis with age ([1]; 1 μg/ml): reduce this effect | paralysis with age ([1]; 5 μg/ml): reduce this effect

C[C@]12CC[C@H](O)CC1=CC[C@@H]1[C@@H]2CC[C@]2(C)C(=O)CC[C@@H]12 [DHEA]
mobility with age [2]: showed no effect; also recorded: no effect is observed

CCCCCCCCCCCCCC(=O)NCCc1ccc(OS(N)(=O)=O)cc1 [DU-14]
memory loss [3]: could alleviate memory loss

C[C@]12CC[C@H]3[C@@H](CCC4=CC(=O)CC[C@@]43C)[C@@H]1CC[C@H]2OS(=O)(=O)O [ES, N,N-diethylethanamine; [(8R,9S,10R,13S,14S,17R)-10,13-dimethyl-3-oxo-1,2,6,7,8,9,11,12,14,15,16,17-dodecahydrocyclopenta[a]phenanthren-17-yl] hydrogen sulfate]
paralysis phenotype ([1]; normal NGM plates, 1 μg/ml): reduced | paralysis phenotype [1, 11]: ameliorate | mobility with age [2]: improves the mobility | L1 arrest [4]: increase | life span ([5]; sul-2(gk187) / sul-2 mutants background, hormone 1 μg/ml): did not further increase longevity in sul-2 mutants backgrounds; also recorded: does not further increase in sul-2(gk187) | life span ([5]; sul-2(pv17) background, hormone 1 μg/ml): does not increase further in sul-2(pv17) | life span [5, 12]: increases lifespan in wild type background; also recorded: increased in longevity on a wild type background; also recorded: increases life span in a wild type background

NS(=O)(=O)Oc1ccc2c3c(c(=O)oc2c1)CCCCC3 [STX64]
cognitive deficiencies, passive avoidance test ([6]; local (intrahippocampal) administration): reverted the cognitive deficiencies | cognitive deficiencies, passive avoidance test ([6]; systemic (oral) administration): reverted the cognitive deficiencies | βA plaque density ([7]; >15-month-old APP-PS1 mice, 3-4 weeks oral, 0.005 mg/ml in drink water, cortex and hippocampus): significant reduction | βA plaque size ([7]; >15-month-old APP-PS1 mice, 3-4 weeks oral, cortex): significant reduction | βA immunoreactive area ([7]; >15-month-old APP-PS1 mice, 3-4 weeks oral, cortex and hippocampus): reduced in both tissues | βA deposition versus normal temporal course ([7]; >15-month-old treated mice compared to un-treated APP-PS1 mice of 10-12 months): reduces βA deposition | paralysis phenotype [1, 11]: delayed paralysis; also recorded: the paralysis phenotype is ameliorated | mobility with age [2]: significantly improved mobility; also recorded: protective effect | number of Q40 aggregates [8]: reduced the number of aggregates; also recorded: Q40 aggregates are reduced | paralysis with age [9]: delayed paralysis; also recorded: ameliorated | L1 arrest [4]: mainly arrests in L1 | development ([4]; wild type): does not affect development of wild type | cognitive deficiencies, passive avoidance test [10]: completely reverted cognitive deficiencies | lifespan, dependence on daf-36 ([5]; daf-36 background, STX64 1 μg/ml): DAF-36 is required for the longevity; also recorded: necessary for the increase of longevity | life span ([5]; sul-2 (gk187) deletion background, STX64 1 μg/ml, UV-killed E. coli): not in sul-2 (gk187) background; also recorded: does not further increase the longevity of sul-2 deletion mutants | life span ([5]; wild type animals, STX64 1 μg/ml, UV-killed E. coli): increases lifespan in wild type animals; also recorded: an increase in longevity | life span ([5]; wild type, non-UV E. coli): increases lifespan of wild type

C[C@]12CC[C@H]3[C@@H](CCC4=CC(=O)CC[C@@]43C)[C@@H]1CC[C@@H]2OS(=O)(=O)O [TS, [(8R,9S,10R,13S,14S,17S)-10,13-dimethyl-3-oxo-1,2,6,7,8,9,11,12,14,15,16,17-dodecahydrocyclopenta[a]phenanthren-17-yl]hydrogen sulfate]
paralysis phenotype ([1]; normal NGM plates, 1 μg/ml): reduced | paralysis phenotype [1, 11]: ameliorate | mobility with age [2]: improves the mobility | L1 arrest [4]: increase | life span [5, 12]: do not affect; also recorded: does not affect longevity

C[C@]12CC[C@H]3[C@@H](CCC4=CC(=O)CC[C@@]43C)[C@@H]1CC[C@@H]2O [testosterone]
mobility with age [2]: showed no effect; also recorded: no effect is observed

dehydroepiandrosterone sulfate [DHEAS]
mobility with age [2]: improves the mobility | L1 arrest [4]: increase | life span [5, 12]: do not affect; also recorded: does not affect longevity

pregnenolone sulfate
mobility with age [2]: showed no effect; also recorded: no effect is observed
